Patent publication US20250101023A1, “HETEROARYL DERIVATIVE AND USES THEREOF” (IUCF-HYU (INDUSTRY-UNIVERSITY COOPERATION FOUNDATION …, priority 2022, published 2025)

Experiments:
CDK6/cyclin D1 = CDK6/cyclin D1 (Homo sapiens (Human), UniProt Q00534); experiment: Kinome-wide profiling; format: biochemical; details: read-out: % Residual Activity (mean)
PKN1/PRK1 = PKN1/PRK1 (Homo sapiens (Human), UniProt Q16512); experiment: Kinome-wide profiling; format: biochemical; details: read-out: % Residual Activity (mean)
MST3/STK24 = MST3/STK24 (Homo sapiens (Human), UniProt Q9Y6E0); experiment: Kinome-wide profiling; format: biochemical; details: read-out: % Residual Activity (mean)
MARK4 = MARK4 (Homo sapiens (Human), UniProt Q96L34); experiment: Kinome-wide profiling; format: biochemical; details: read-out: % Residual Activity (mean)
EPHA4 = EPHA4 (Homo sapiens (Human), UniProt P54764); experiment: Kinome-wide profiling; format: biochemical; details: read-out: % Residual Activity (mean)
Sequence of EPHA4 (P54764 20-986): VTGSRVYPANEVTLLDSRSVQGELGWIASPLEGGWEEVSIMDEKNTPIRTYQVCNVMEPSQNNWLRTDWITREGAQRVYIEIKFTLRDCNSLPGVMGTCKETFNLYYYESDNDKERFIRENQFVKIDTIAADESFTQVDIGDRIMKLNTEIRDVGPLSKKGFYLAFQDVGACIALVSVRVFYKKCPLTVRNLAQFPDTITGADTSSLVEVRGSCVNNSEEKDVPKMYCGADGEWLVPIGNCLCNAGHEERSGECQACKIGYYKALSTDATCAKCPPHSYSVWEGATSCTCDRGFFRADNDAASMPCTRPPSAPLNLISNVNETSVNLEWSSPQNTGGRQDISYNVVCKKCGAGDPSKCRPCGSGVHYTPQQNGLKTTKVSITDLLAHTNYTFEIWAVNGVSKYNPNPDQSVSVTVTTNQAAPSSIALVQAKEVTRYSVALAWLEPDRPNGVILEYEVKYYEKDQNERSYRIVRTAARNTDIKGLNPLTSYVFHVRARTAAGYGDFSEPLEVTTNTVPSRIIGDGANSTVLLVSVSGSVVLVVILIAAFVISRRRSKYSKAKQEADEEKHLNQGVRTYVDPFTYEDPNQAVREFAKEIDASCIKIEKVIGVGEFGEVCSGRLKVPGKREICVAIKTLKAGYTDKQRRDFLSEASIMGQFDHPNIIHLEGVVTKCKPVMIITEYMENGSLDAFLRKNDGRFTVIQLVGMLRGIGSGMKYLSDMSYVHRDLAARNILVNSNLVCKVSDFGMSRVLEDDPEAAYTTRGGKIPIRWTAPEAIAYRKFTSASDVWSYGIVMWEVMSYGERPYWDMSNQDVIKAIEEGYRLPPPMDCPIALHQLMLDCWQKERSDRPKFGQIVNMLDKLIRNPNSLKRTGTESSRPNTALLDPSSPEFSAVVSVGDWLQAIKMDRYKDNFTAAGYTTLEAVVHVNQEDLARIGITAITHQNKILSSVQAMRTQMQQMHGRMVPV

TGFBR2 = TGFBR2 (Homo sapiens (Human), UniProt P37173); experiment: Kinome-wide profiling; format: biochemical; details: read-out: % Residual Activity (mean)
CDK1/cyclin A = CDK1/cyclin A (Homo sapiens (Human), UniProt P06493); experiment: Kinome-wide profiling; format: biochemical; details: read-out: % Residual Activity (mean)
Sequence of CDK1/cyclin A (P06493 whole entry): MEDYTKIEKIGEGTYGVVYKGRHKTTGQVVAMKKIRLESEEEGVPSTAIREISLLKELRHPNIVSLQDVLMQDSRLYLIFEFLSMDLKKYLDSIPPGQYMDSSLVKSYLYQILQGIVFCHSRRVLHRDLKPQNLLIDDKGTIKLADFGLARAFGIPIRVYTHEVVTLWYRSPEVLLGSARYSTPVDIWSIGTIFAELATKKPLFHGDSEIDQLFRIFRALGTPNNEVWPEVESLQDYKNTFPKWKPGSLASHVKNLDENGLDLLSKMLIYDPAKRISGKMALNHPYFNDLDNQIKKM
Sequence of CDK1/cyclin A (P20248 whole entry partner): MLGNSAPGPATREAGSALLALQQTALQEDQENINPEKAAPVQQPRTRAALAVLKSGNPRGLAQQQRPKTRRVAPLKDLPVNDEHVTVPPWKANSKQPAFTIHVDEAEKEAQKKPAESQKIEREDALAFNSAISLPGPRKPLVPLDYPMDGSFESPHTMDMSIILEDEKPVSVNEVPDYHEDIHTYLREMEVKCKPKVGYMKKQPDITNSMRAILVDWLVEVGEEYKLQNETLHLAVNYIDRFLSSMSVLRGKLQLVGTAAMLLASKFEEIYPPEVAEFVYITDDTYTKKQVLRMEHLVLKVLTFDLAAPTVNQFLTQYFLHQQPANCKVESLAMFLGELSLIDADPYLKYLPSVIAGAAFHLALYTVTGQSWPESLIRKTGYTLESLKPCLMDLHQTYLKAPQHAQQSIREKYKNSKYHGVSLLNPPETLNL

CDK1/cyclin B = CDK1/cyclin B (Homo sapiens (Human), UniProt P06493); experiment: Kinome-wide profiling; format: biochemical; details: read-out: % Residual Activity (mean)
Sequence of CDK1/cyclin B (P06493 whole entry): as the sequence (P06493 whole entry) above
Sequence of CDK1/cyclin B (P14635 whole entry partner): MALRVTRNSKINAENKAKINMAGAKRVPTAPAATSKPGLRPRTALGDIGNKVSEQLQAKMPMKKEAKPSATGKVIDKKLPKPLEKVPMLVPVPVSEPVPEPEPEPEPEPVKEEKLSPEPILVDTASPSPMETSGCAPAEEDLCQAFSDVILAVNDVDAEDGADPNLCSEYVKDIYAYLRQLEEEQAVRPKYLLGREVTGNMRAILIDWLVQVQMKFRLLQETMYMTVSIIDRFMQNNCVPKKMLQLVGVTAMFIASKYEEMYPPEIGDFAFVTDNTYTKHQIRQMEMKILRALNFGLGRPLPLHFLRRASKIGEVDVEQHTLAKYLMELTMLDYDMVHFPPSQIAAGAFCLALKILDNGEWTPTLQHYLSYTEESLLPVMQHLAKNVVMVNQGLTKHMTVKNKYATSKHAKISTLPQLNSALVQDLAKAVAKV

HCC1954 xenograft = HCC1954 xenograft model, anticancer efficacy; format: in vivo, mouse; details: 20 mg/kg and 40 mg/kg, i.p. twice a week
Method: A mouse efficacy experiment was conducted after obtaining approval from the Laboratory Animal Ethics Committee of GenNBio (Review No.: GN-IACUC-Research 22-02-07). SK-Br3 and HCC-1954 cells (1×10^6 cells each) mixed with Matrigel (BD Biosciences) were […] injected into 5-week-old female Balb/c nude mice (Orient Bio, Seongnam, Republic of Korea). After tumors reached a size of about 100 mm^3, the compound, trastuzumab (20 mg/kg), and the like were intraperitoneally injected into mice (n=8 per group)(vehicle: 8% DMSO, 4% Tween-80, 88% PBS). The tumor size was measured twice weekly for about 4 weeks and calculated as follows. Volume (mm^3)=(a×b^2)/2; “a”, maximum diameter; “b”, vertical diameter

JAK1 = JAK1 (Homo sapiens (Human), UniProt P23458); experiment: Kinome-wide profiling; format: biochemical; details: read-out: % Residual Activity (mean)
YES/YES1 = YES/YES1 (Homo sapiens (Human), UniProt P07947); experiment: Kinome-wide profiling; format: biochemical; details: read-out: % Residual Activity (mean)
EPHA6 = EPHA6 (Homo sapiens (Human), UniProt Q9UF33); experiment: Kinome-wide profiling; format: biochemical; details: read-out: % Residual Activity (mean)
TLK2 = TLK2 (Homo sapiens (Human), UniProt Q86UE8); experiment: Kinome-wide profiling; format: biochemical; details: read-out: % Residual Activity (mean)
MYO3A = MYO3A (Homo sapiens (Human), UniProt Q8NEV4); experiment: Kinome-wide profiling; format: biochemical; details: read-out: % Residual Activity (mean)
c-MER = c-MER (Homo sapiens (Human), UniProt Q12866); experiment: Kinome-wide profiling; format: biochemical; details: read-out: % Residual Activity (mean)
LOK/STK10 = LOK/STK10 (Homo sapiens (Human), UniProt O94804); experiment: Kinome-wide profiling; format: biochemical; details: read-out: % Residual Activity (mean)
RSK1 = RSK1 (Homo sapiens (Human), UniProt Q15418); experiment: Kinome-wide profiling; format: biochemical; details: read-out: % Residual Activity (mean)
DYRK2 = DYRK2 (Homo sapiens (Human), UniProt Q92630); experiment: Kinome-wide profiling; format: biochemical; details: read-out: % Residual Activity (mean)
ARAF = ARAF (Homo sapiens (Human), UniProt P10398); experiment: Kinome-wide profiling; format: biochemical; details: read-out: % Residual Activity (mean)
Sequence of ARAF (P10398 whole entry): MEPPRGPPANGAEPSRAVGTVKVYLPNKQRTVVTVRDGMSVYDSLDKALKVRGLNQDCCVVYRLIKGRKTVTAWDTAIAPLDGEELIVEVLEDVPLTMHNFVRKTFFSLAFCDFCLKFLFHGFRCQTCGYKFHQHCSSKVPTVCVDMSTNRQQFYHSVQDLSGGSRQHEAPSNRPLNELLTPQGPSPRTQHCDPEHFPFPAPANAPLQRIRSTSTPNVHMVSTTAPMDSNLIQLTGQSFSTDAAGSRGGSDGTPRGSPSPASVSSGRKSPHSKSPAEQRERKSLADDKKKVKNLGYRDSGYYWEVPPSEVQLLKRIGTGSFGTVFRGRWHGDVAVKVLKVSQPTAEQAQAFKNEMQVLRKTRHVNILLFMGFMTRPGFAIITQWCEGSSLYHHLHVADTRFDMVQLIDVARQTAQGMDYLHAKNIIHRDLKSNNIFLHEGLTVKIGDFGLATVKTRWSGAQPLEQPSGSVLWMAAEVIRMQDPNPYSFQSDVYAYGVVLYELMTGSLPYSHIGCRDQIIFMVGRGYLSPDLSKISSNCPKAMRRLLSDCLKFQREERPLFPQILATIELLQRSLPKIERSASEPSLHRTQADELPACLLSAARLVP

CAMKK1 = CAMKK1 (Homo sapiens (Human), UniProt Q8N5S9); experiment: Kinome-wide profiling; format: biochemical; details: read-out: % Residual Activity (mean)
TAOK3/JIK = TAOK3/JIK (Homo sapiens (Human), UniProt Q9H2K8); experiment: Kinome-wide profiling; format: biochemical; details: read-out: % Residual Activity (mean)
Sequence of TAOK3/JIK (Q9H2K8 whole entry): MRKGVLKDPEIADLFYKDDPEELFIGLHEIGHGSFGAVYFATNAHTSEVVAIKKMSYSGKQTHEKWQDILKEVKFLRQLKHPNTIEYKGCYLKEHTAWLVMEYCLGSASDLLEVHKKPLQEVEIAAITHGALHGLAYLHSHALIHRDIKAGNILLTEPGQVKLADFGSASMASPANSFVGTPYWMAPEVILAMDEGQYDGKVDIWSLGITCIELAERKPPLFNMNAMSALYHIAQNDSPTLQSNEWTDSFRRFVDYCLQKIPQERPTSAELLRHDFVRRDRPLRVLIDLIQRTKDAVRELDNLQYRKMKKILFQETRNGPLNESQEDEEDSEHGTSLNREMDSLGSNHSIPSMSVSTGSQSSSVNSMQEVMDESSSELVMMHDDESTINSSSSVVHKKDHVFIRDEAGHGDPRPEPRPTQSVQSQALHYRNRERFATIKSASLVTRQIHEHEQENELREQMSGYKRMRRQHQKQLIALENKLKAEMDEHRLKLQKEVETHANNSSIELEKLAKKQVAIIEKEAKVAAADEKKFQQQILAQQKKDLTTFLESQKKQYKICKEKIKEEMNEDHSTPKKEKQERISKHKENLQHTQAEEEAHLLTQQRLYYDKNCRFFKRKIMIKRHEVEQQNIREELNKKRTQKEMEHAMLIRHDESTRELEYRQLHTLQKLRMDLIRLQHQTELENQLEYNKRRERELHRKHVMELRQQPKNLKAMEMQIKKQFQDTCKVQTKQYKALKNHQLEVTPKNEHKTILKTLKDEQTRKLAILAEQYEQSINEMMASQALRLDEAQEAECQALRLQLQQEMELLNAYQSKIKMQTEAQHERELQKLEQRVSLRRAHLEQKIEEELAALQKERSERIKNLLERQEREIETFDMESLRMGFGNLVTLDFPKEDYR

DMPK2 = DMPK2 (Homo sapiens (Human), UniProt Q6DT37); experiment: Kinome-wide profiling; format: biochemical; details: read-out: % Residual Activity (mean)
CAMK1a = CAMK1a (Homo sapiens (Human), UniProt Q14012); experiment: Kinome-wide profiling; format: biochemical; details: read-out: % Residual Activity (mean)
STK25/YSK1 = STK25/YSK1 (Homo sapiens (Human), UniProt O00506); experiment: Kinome-wide profiling; format: biochemical; details: read-out: % Residual Activity (mean)
LIMK2 = LIMK2 (Homo sapiens (Human), UniProt P53671); experiment: Kinome-wide profiling; format: biochemical; details: read-out: % Residual Activity (mean)
PASK = PASK (Homo sapiens (Human), UniProt Q96RG2); experiment: Kinome-wide profiling; format: biochemical; details: read-out: % Residual Activity (mean)
PKCtheta = PKCtheta (Homo sapiens (Human), UniProt Q04759); experiment: Kinome-wide profiling; format: biochemical; details: read-out: % Residual Activity (mean)
SNARK/NUAK2 = SNARK/NUAK2 (Homo sapiens (Human), UniProt Q9H093); experiment: Kinome-wide profiling; format: biochemical; details: read-out: % Residual Activity (mean)
Sequence of SNARK/NUAK2 (Q9H093 whole entry): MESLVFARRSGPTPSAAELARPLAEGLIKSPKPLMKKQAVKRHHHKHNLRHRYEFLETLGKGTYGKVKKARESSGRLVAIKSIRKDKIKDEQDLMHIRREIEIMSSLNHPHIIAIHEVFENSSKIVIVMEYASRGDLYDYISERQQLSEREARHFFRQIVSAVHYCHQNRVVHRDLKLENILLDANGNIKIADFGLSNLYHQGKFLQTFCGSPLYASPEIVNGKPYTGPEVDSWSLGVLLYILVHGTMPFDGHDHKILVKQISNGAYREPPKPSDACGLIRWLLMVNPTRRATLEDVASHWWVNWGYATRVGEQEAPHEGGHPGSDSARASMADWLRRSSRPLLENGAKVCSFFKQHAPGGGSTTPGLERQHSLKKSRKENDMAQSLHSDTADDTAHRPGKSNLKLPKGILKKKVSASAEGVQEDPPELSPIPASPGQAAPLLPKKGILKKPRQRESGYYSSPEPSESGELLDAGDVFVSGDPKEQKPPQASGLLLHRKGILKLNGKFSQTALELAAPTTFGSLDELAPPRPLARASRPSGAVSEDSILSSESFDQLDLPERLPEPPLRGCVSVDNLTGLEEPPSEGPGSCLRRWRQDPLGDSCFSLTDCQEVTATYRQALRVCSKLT

JNK2 = JNK2 (Homo sapiens (Human), UniProt P45984); experiment: Kinome-wide profiling; format: biochemical; details: read-out: % Residual Activity (mean)
Sequence of JNK2 (P45984 whole entry): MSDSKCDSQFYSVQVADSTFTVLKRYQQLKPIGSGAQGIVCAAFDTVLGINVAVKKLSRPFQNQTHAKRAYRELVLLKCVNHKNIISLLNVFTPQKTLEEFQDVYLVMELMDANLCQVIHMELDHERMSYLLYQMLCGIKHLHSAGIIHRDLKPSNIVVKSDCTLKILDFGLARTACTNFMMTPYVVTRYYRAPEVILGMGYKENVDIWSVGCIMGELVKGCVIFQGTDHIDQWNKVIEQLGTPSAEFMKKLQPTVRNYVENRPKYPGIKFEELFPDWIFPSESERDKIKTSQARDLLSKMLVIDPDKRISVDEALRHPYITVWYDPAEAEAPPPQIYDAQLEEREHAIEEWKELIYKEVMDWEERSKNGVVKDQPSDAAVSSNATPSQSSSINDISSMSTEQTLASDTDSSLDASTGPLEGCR

Compound: CCn1cnc2c(NCc3ccc(-c4ccccn4)nc3)nc(-c3ccc(N)nc3)nc21 [Example 53, N-([2,2′-bipyridin]-5-ylmethyl)-2-(6-aminopyridin-3-yl)-9-ethyl-9H-purin-6-amine]
- remaining activity at 10 µM (CDK6/cyclin D1): 24.2%
- remaining activity at 10 µM (PKN1/PRK1): 85.4%
- remaining activity at 10 µM (MST3/STK24): 47%
- remaining activity at 10 µM (MARK4): 66.9%
- remaining activity at 10 µM (EPHA4): 3.61%
- remaining activity at 10 µM (TGFBR2): 94.5%
- remaining activity at 10 µM (CDK1/cyclin A): 4.65%
- remaining activity at 10 µM (CDK1/cyclin B): 2.06%
- anticancer efficacy (HCC1954 xenograft): dose-dependent anticancer efficacy
- remaining activity at 10 µM (JAK1): 92.1%
- remaining activity at 10 µM (YES/YES1): 20.6%
- remaining activity at 10 µM (EPHA6): 3.04%
- remaining activity at 10 µM (TLK2): 72.2%
- remaining activity at 10 µM (MYO3A): 71.3%
- remaining activity at 10 µM (c-MER): 71%
- remaining activity at 10 µM (LOK/STK10): 41.4%
- remaining activity at 10 µM (RSK1): 59.1%
- remaining activity at 10 µM (DYRK2): 22.3%
- remaining activity at 10 µM (ARAF): 79.5%
- remaining activity at 10 µM (CAMKK1): 18.7%
- remaining activity at 10 µM (TAOK3/JIK): 23.1%
- remaining activity at 10 µM (DMPK2): 92.4%
- remaining activity at 10 µM (CAMK1a): 34%
- remaining activity at 10 µM (STK25/YSK1): 23.1%
- remaining activity at 10 µM (LIMK2): 76.5%
- remaining activity at 10 µM (PASK): 96.3%
- remaining activity at 10 µM (PKCtheta): 79.8%
- remaining activity at 10 µM (SNARK/NUAK2): 59%
- remaining activity at 10 µM (JNK2): 61.7%
